One assay relates to RAS^V12-MEFs. Put plainly: growth of RAS^V12-MEFs in the presence of HDAC inhibitor. In kind it is cell-based, mouse. As to the method: In order to address the molecular basis for the selective growth-inhibitory activity of HDACi on cancer cells, we performed a functional genetic screen to identify genes that confer resistance to a small-molecule HDACi, named PXD101 (Plumb et al, 2003). Oncogenic RAS^V12-transformed mouse embryonic fibroblasts (RAS^V12-MEFs) were infected with a high complexity retroviral cDNA expression library derived from human K562 erythroleukemia cells and exposed to 1 μM PXD101 for three to […]. HDACi-resistant colonies appeared at low frequency only after infection with cDNA expression library. Integrated proviruses were mobilized from PXD101-resistant colonies by Moloney virus super-infection as described (Jacobs et al, 2000). After second round selection, cDNA inserts were recovered by PCR and identified by DNA sequence analysis. Using this approach, we identified full-length cDNAs encoding the human melanoma tumour antigen PRAME (PReferentially expressed Antigen in MElanoma (Ikeda et al, 1997) and Retinoic Acid Receptor alpha (RARα) as cDNAs that allow continuous proliferation in the presence of 1 μM PXD101. PRAME also rescues these cells from growth arrest by a related HDACi, Trichostatin A at a concentration of 0.1 μM.
The observed effect of PRAME on RAR signalling could result from a physical interaction of PRAME with RAR or from more indirect effects. […]

The test system of assay [1] is histone H3 acetylation, p21. The assay can be described thus: immunoblot for acetyl-H3 and p21 in Ras^V12 MEFs treated with HDACi. The assay is classed as cell-based, mouse. The following applies: 1 μM PXD101 for 16 hrs; not prevented by PRAME or RARα expression. As to the method:
Ras^V12 MEFs were also transduced with PRAME or RARα retrovirus and treated with 1 μM PXD101 for 16 hrs. Extracts were immunoblotted for acetyl-H3, p21, PRAME, RARα and CDK4 (control). […] Cells were lysed in Ripa buffer (50 mM Tris pH 8.0, 150 mM NaCl, 1% NP-40, 0.5% deoxycholic acid, and 0.1% SDS) supplemented with protease inhibitors (Complete; Roche) and […] PMSF and proteins were separated on 10-14% SDS-PAGE gels. Proteins were transferred to polyvinylidine difluoride membranes (Immobilon P, Millipore) and Western blots were probed with the indicated antibodies. For TAP (co-)immunoprecipitations cells were lysed in ELB buffer (0.25 M NaCl, 0.1% NP-40, 50 mM HEPES pH 7.3) supplemented with protease inhibitors and PMSF. Lysates were incubated with IgG-coated sepharose beads (Amersham) to immunoprecipitate TAP and TAP-PRAME (Rigaut et al 1999), indicated as anti-TAP, or with protein A beads and normal mouse serum (mock IP) for 2 hrs, washed, and separated on SDS-PAGE gels.

A further assay has as its system A375-PRAMEKD cells. Put plainly: human melanoma xenograft model, A375-PRAMEKD tumours. The assay is classed as in vivo, mouse. The following applies: 5 mg/kg RA p.o. daily, nude mice, PRAMEKD melanomas, vs vehicle. As to the method: To examine the role of PRAME in RA-responsiveness in vivo, we used a human melanoma xenograft model. Nude mice were subcutaneously transplanted with parental A375 into one flank and A375-PRAMEKD cells in the opposite flank and the mice were treated p.o. daily with either 5 mg/kg RA or vehicle only, while tumor volumes were measured weekly.
Female 5-6 week old athymic BALB-C nude mice (nu/nu) were s.c. implanted with 1×10^6 cells bilaterally into the axial regions. Each mouse received A375-PRAMEKD cells in its right flank and control A375 cells in its left flank. Mice were randomized into treatment groups and treated with 5 mg/kg RA or vehicle (ethanol in sunflower oil) p.o. with a 20-gauge intragastric feeding tube daily. Tumor diameter was measured with calipers weekly. The pRS vector which was used to generate A375-PRAMEKD cells is a self-inactivating retroviral vector, to prevent re-activation and spreading of virus (Brummelkamp et al., 2002a; Brummelkamp et al., 2002b). The experiment was performed twice, with n=20 and n=10 mice and results were similar in both experiments.

For another assay, the system named is RARβ. Put plainly: immunoblot for endogenous RARβ in F9 cells treated with RA. In kind it is cell-based, mouse. The following applies: 10^−7 M RA; parental and mock-transfected F9 cells, not PRAME-transfected. As to the method:
(§1) Cells were lysed in Ripa buffer (50 mM Tris pH 8.0, 150 mM NaCl, 1% NP-40, 0.5% deoxycholic acid, and 0.1% SDS) supplemented with protease inhibitors (Complete; Roche) and […] PMSF and proteins were separated on 10-14% SDS-PAGE gels. Proteins were transferred to polyvinylidine difluoride membranes (Immobilon P, Millipore) and Western blots were probed with the indicated antibodies. For TAP (co-)immunoprecipitations cells were lysed in ELB buffer (0.25 M NaCl, 0.1% NP-40, 50 mM HEPES pH 7.3) supplemented with protease inhibitors and PMSF. Lysates were incubated with IgG-coated sepharose beads (Amersham) to immunoprecipitate TAP and TAP-PRAME (Rigaut et al 1999), indicated as anti-TAP, or with protein A beads and normal mouse serum (mock IP) for 2 hrs, washed, and separated on SDS-PAGE gels.
In general terms: In western blotting, separated proteins are transferred to a membrane and probed.

The test system of assay [2] is F9 mouse embryo carcinoma cells. Put plainly: RA-induced apoptosis in F9 cells (cleaved caspase 3). In kind it is cell-based. The following applies: 10^−7 M RA; vector controls, not PRAME transfectants. An excerpt: RA induces proliferation arrest, differentiation and apoptosis in many cell types. We therefore asked if PRAME expression affected the RA-induced differentiation of F9 mouse embryo carcinoma cells towards parietal endoderm (Strickland and Mandavi, 1978). F9 cells were stably transfected with PRAME or control vector and individual colonies were selected. In the to absence of RA, the morphology of all transfected cells was the some as that of parental F9 cells. However, F9 cells stably transfected with PRAME […] and treated with 10^−7 M RA were resistant to RA-induced morphological differentiation and growth arrest. Apart from differentiating, a fraction of F9 cells treated with RA dies by apoptosis (Atencia et al, 1994). […] We conclude that PRAME expression confers resistance to RA-induced proliferation arrest, differentiation and apoptosis.
(§2) F9 cells were stably transfected with PRAME or empty vector and resistant cells were differentiated in 10^−7 M RA for 5 days. A375 cells were stably transfected with pRS-PRAME or empty vector and stable clones were cultured according to the 3T3 protocol. Medium with RA was refreshed every 24-48 hrs.

For the next assay, the system named is A375-PRAME^KD cells. Put plainly: proliferation of A375-PRAME^KD cells, 3T3 protocol. The following applies: 15 days, medium with 5 μM RA. The assay is classed as cell-based, human. The method, then: (§3) To assess the effect of PRAME knockdown on cell proliferation, we generated stable derivatives of A375 melanoma having shRNA-mediated knockdown of PRAME expression (A375-PRAME^KD). These A375-PRAME^KD cells were cultured for 15 days according to the 3T3 protocol.
as §2

The subject of a further assay is RARβ and p21. The assay can be described thus: immunoblot of RA target genes RARβ and p21 in A375-PRAME^KD cells. The assay is classed as cell-based, human. The following applies: 5 μM RA. As to the method: as §1
The subject of a further assay is p21 promoter. Put plainly: p21 promoter-luciferase reporter in B16 melanoma cells. The assay is classed as cell-based, mouse. The following applies: B16 melanoma cells treated with RA; suppressed by PRAME. The method, then:
as §3
Transfections were carried out using the Lipofectamine reagent (Invitrogen), except for Ras^V12 MEFs and Phoenix cells, which were transfected using calcium phosphate precipitation. RA-based reporter assays were done in DMEM with charcoal-stripped FCS (Hyclone). In reporter assays 0.5 μg of reporter-luciferase, 1 ng CMV-renilla, and 3 μg of the indicated DNA were transfected. RA, PXD101, or TSA was added 24 hrs after transfection and assays were performed 48 hrs after transfection. In knock-down experiments, RA or PXD101 was added 72 hrs after transfection and assays were performed 96 hrs after transfection. Luciferase activities shown represent ratios between luciferase and renilla internal control values.
In general terms: In a reporter assay the amount or activity of a reporter protein is the signal.

On to `O=C(/C=C/c1cccc(S(=O)(=O)Nc2ccccc2)c1)NO` [PXD101, N-hydroxy-3-(3-phenylsulfamoyl-phenyl)-acrylamide], for which, in the assay on RAS^V12-MEFs (1 μM PXD101), the cell growth result was “growth arrest”. Further, in assay [1], the “histone H3 acetylation” value is listed as “increase” and the p21 expression entry is “induction”.

With `CC1=C(/C=C/C(C)=C/C=C/C(C)=C/C(=O)O)C(C)(C)CCC1` [RA, All-trans-retinoic acid], in the assay on A375-PRAMEKD cells, the tumor growth result was “severely retarded”. Moreover, in the assay with RARβ, the “endogenous RARβ protein expression” value was “induced”. The “cleaved caspase 3 (apoptosis)” value in assay [2] is “apparent in vector controls”. Besides, the proliferation rates result in the assay with A375-PRAME^KD cells was “significantly decreased proliferation rates, especially when cultured in the presence of RA”. Further, the “induction of RA target genes RARβ and p21” value in the assay on RARβ and p21 is reported as “enhanced”. In addition, the “p21 promoter-luciferase reporter activity” value in the assay on p21 promoter is reported as “activated”.

For the compound `CC(/C=C/C(=O)NO)=C\[C@@H](C)C(=O)c1ccc(N(C)C)cc1` [Trichostatin A], the cell growth result in the assay on RAS^V12-MEFs (Trichostatin A 0.1 μM) is recorded as “growth arrest”.

Source of the values: US8969544B2, “Combined use of PRAME inhibitors and HDAC inhibitors” (priority 2004, dated 2015).
